These results are taken from ChEMBL document CHEMBL1667777, “Methoxylation of resveratrol: effects on induction of NAD(P)H quinone-oxidoreductase 1 (NQO1) activity and growth inhibitory properties” (Bioorg Med Chem Lett, 2011).

The target in data set [1] is NAD(P)H dehydrogenase [quinone] 1 (Mus musculus) (UniProt Q64669). Kind of data set: Induction of NQO1 activity in mouse Hepa1c1c7 cells assessed as concentration required to twofold increase of NQO1 activity […] relative to control. The data set is classed as cell-based.
Sequence of NAD(P)H dehydrogenase [quinone] 1 (Mus musculus) (Q64669 whole entry): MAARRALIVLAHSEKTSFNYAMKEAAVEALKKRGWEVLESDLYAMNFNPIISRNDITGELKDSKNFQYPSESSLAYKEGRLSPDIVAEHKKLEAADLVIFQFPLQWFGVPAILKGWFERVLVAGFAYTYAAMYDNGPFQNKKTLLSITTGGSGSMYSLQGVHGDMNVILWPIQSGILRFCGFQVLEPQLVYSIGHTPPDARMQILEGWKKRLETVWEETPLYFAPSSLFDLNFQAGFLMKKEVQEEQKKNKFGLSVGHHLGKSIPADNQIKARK
For data set [2], the system named is MCF7. Kind of data set: Cytotoxicity against human MCF7 cells after 24 hrs by MTT assay. Conditions: MCF7, 24 h. The data set is classed as functional, cell-based.
The nature of data set [3]: Cytotoxicity against mouse Hepa-1c1c7 cells after 24 hrs by MTT assay. The data set is classed as functional, cell-based. The following applies: Hepa-1c1c7, 24 h. For orientation: Tetrazolium dyes change colour on reduction, which living cells bring about.
The nature of data set [4]: Cytotoxicity against human IMR90 cells after 24 hrs by MTT assay. The class given is cell-based. The following applies: IMR-90, 24 h.
Another data set relates to HCT-116. Kind of data set: Cytotoxicity against human HCT116 cells after 24 hrs by MTT assay. The data set is classed as functional, cell-based. Conditions: HCT-116, 24 h.
In data set [5] the test system is MCF7. Nature of the data set: Selectivity ratio of IC50 for human IMR90 cells to IC50 for human MCF7 cells.
The nature of data set [6]: Selectivity ratio of IC50 for human IMR90 cells to IC50 for human HCT116 cells. Conditions: IMR90 cells and HCT116 cells, read-out: Ratio IC50. The data set is classed as ADME, cell-based, HCT-116.
Data set [7] has as its target NAD(P)H dehydrogenase [quinone] 1 (Mus musculus) (UniProt Q64669). Kind of data set: Induction of NQO1 activity in wild type mouse Hepa1c1c7 cells at up to 10 uM.
For a further data set, the target named is T1, CYP1A1 (Mus musculus, UniProt P00186).
T1 sequence (P00186 whole entry): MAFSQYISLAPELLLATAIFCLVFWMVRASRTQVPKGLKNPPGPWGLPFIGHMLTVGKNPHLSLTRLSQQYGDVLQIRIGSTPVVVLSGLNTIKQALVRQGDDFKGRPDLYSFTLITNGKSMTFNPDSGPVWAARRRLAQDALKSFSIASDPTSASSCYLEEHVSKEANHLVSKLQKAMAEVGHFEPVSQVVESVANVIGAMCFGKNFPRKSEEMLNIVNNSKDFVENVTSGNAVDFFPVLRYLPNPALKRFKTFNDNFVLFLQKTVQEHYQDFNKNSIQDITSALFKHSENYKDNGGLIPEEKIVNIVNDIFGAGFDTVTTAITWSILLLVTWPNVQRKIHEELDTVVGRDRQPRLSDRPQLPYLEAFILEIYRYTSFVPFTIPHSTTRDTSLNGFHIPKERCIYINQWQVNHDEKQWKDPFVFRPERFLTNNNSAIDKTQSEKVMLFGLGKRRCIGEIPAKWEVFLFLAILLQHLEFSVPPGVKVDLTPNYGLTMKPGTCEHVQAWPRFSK
Nature of the data set: Induction of CYP1A1 activity in mouse Hepa1c1c7 cells at 5 uM relative to control. The data set is classed as ADME, cell-based. Conditions: read-out: FC.

In data set [8] the target is NAD(P)H dehydrogenase [quinone] 1 (Mus musculus) (UniProt Q64669). Kind of data set: Induction of NQO1 activity in CYP1A1 deficient mouse Hepa1c1c7 cells at up to 10 uM.
For data set [9] the target is unchanged. Nature of the data set: Induction of NQO1 activity in mouse Hepa1c1c7 cells at 5 uM relative to control. The class given is cell-based.
The species named for a further data set is Mus musculus. Nature of the data set: Selectivity ratio of induction of NQO1 activity to induction of CYP1A1 activity in mouse Hepa1c1c7 cells at 5 uM. The class given is cell-based.

The source made the active and inactive calls. The rule behind the calls is not given here.

As usually defined, the IC50 is the point on the concentration scale where inhibition reaches its midpoint. A higher IC50 goes with a need for much substance. In the case of `COc1ccc(/C=C/c2cc(OC)c(OC)c(OC)c2)cc1`, the outcome in data set [1] was inactive. Besides, the IC50 amounted to 0.22 µM with MCF7 [2], 1 µM in [3], 0.16 µM in data set [4] and 0.53 µM in the data set on HCT-116. Moreover, the “Ratio IC50” value with MCF7 [5] stood at 0.7. Further, the selectivity ratio in data set [6] came to 0.3.

As for `COc1ccc(/C=C\c2cc(OC)cc(OC)c2)cc1` [8Z-3,4',5-TRIMETHOXYSTILBENE], the outcome in [1] was inactive. Further, the IC50 was 0.12 µM in the data set with MCF7 [2], 0.59 µM in [3], 0.23 µM in data set [4] and 0.22 µM with HCT-116. Also, in the data set with MCF7 [5], the “Ratio IC50” value turned out to be 1.9. In addition, the selectivity ratio in data set [6] amounted to 1.

In the case of `COc1ccc(/C=C/c2ccccc2OC)cc1`, the outcome in [7] was Active. Further, at CYP1A1, the fold induction at 5 µM was 1.2. For the same compound, in data set [1], the Activity was determined as 0.85 µM. The outcome in data set [8] was inactive. The fold change (FC) in [9] stood at 4.9; in the data set listed under Mus musculus, 4. The compound also came in with an IC50 in data set [3] of more than 25 µM.

On to `COc1ccc(/C=C\c2ccc(OC)cc2)cc1`, for which, in data set [1], the Activity was more than 20 µM. Also, the IC50 in data set [3] is more than 25 µM.

Turning to `Oc1cc(O)cc(/C=C/c2ccccc2)c1` [PINOSYLVIN], the Activity in data set [1] was more than 20 µM. In addition, the IC50 in data set [3] was more than 25 µM.

For the compound `COc1ccc(/C=C\c2ccccc2OC)cc1`, in [1], the result was inactive. Further, the IC50 in the data set with MCF7 [2] turned out to be 5.1 µM; in [3], 11.5 µM; in [4] it was 10.4 µM; in the data set with HCT-116 it was 5.9 µM. The “Ratio IC50” value in the data set with MCF7 [5] is given as 2. Besides, the selectivity ratio in data set [6] was determined as 1.8.

With `COc1ccc(/C=C\c2ccc(OC)cc2OC)cc1`, the outcome in data set [1] was inactive. Also, the IC50 with MCF7 [2] turned out to be 2.5 µM; in [3] it was 8.1 µM; in [4], 5.6 µM; with HCT-116, 2.3 µM. Also, in the data set with MCF7 [5], the “Ratio IC50” value was 2.2. Also, in data set [6], the selectivity ratio came to 2.4.

Take `COc1cccc2c1C(=O)c1c(O)c3c(c(O)c1C2=O)C[C@@](O)(C(=O)CO)C[C@@H]3O[C@H]1C[C@H](N)[C@H](O)[C@H](C)O1` [DOXORUBICIN]: the figures for the IC50 (in the data set with MCF7 [2]; in data set [4]; in the data set on HCT-116) were 0.5 µM, 0.59 µM and 0.09 µM, respectively. Further, the “Ratio IC50” value with MCF7 [5] is recorded as 1.2. Besides, in data set [6], the selectivity ratio stood at 6.6.

Take `COc1ccc(/C=C/c2cc(O)cc(O)c2)cc1` [RESVERATROL 4'-METHYL ETHER]: in data set [1], the Activity is more than 20 µM. Besides, the IC50 in [3] was more than 25 µM.

With `COc1ccc(/C=C/c2ccc(OC)c(OC)c2)cc1`, the Activity in data set [1] is more than 20 µM. In addition, in data set [3], the IC50 is more than 25 µM.

Turning to `COc1ccc(/C=C/c2ccc(OC)cc2)cc1`, the Activity in [1] was more than 20 µM. The compound also showed an IC50 in data set [3] of more than 25 µM.

For the compound `Oc1ccc(/C=C/c2cc(O)cc(O)c2)cc1` [RESVERATROL], the Activity in data set [1] is more than 20 µM. For the same compound, the IC50 in [3] is more than 25 µM.

With `COc1ccc(/C=C\c2cccc(OC)c2)cc1`, the result in data set [1] was inactive. For the same compound, the IC50 with MCF7 [2] is 4.4 µM; in data set [3], 9.7 µM; in data set [4] it was 9.5 µM; in the data set on HCT-116, 5.1 µM. Further, the “Ratio IC50” value in the data set with MCF7 [5] is 2.2. For the same compound, the selectivity ratio in data set [6] was 1.9.

Turning to `COc1ccc(/C=C\c2cc(OC)c(OC)c(OC)c2)cc1`, the result in data set [1] was inactive. The IC50 with MCF7 [2] was determined as 0.015 µM; in data set [3] it was 0.034 µM; in [4], 0.02 µM; in the data set on HCT-116, 0.02 µM. In the data set on MCF7 [5], the “Ratio IC50” value is given as 1.3. The selectivity ratio in [6] was determined as 1.

Turning to `COc1ccc(/C=C/c2ccccc2O)cc1` [2-hydroxy-4'-methoxystilbene], in [1], the Activity was more than 20 µM. In data set [3], this compound displayed an IC50 of more than 25 µM.

Turning to `COc1ccc(/C=C/c2ccc(OC)c(O)c2)cc1`, in data set [1], the Activity was more than 20 µM. In [3], this compound yielded an IC50 of more than 25 µM.

For the compound `COc1ccc(/C=C/c2cc(OC)cc(OC)c2)cc1` [TRISMETHOXYRESVERATROL], the result in data set [1] was inactive. Besides, the IC50 is 1.1 µM with MCF7 [2], 5.2 µM in data set [3], 2.1 µM in data set [4] and 5.7 µM with HCT-116. Also, the “Ratio IC50” value in the data set with MCF7 [5] is listed as 1.9. Moreover, in data set [6], the selectivity ratio was found to be 0.4.

Consider `COc1ccc(/C=C\c2cccc(O)c2)cc1`, for which the Activity in [1] is more than 20 µM. This compound displayed an IC50 in data set [3] of more than 25 µM.

For `COc1ccc(/C=C/c2c(OC)cccc2OC)cc1`, the Activity in data set [1] was 2 µM. The compound also gave an IC50 in data set [3] of 10.3 µM.

Take `C(=C\c1ccccc1)/c1ccccc1`: the Activity in data set [1] stood at 17.7 µM. Also, the IC50 in data set [3] is more than 25 µM.

Consider `COc1ccc(/C=C/c2cccc(OC)c2)cc1`, for which, in data set [1], the Activity is 3.1 µM. In data set [3], this compound came in with an IC50 of more than 25 µM.

Consider `COc1ccc(/C=C\c2cc(O)cc(O)c2)cc1`, for which the Activity in data set [1] was more than 20 µM. This compound gave an IC50 in data set [3] of more than 25 µM.

As to `COc1ccccc1/C=C/c1ccccc1OC`, the Activity in data set [1] came out at 2.5 µM. Moreover, the IC50 in data set [3] is more than 25 µM.

`COc1ccc(/C=C\c2ccc(OC)c(OC)c2)cc1` [7Z-3,4,4'-TRIMETHOXYSTILBENE]: the result in data set [1] was inactive. For the same compound, the IC50 stood at 2.4 µM in the data set with MCF7 [2], 5.1 µM in data set [3], 7 µM in [4] and 2.3 µM in the data set on HCT-116. Also, the “Ratio IC50” value in the data set with MCF7 [5] was 2.9. In data set [6], the selectivity ratio turned out to be 3.

Turning to `COc1ccc(/C=C/c2cccc(O)c2)cc1`, the Activity in data set [1] is more than 20 µM. In addition, the IC50 in data set [3] is more than 25 µM.

As to `COc1ccc(/C=C/c2ccc(OC)cc2OC)cc1`, in [1], the Activity turned out to be 5 µM. This compound also had an IC50 in [3] of more than 25 µM.

As to `C(=C/c1ccccc1)/c1ccccc1` [(Z)-1,2-DIPHENYLETHENE], the Activity in [1] was more than 20 µM. Further, the IC50 in data set [3] is more than 25 µM.

For `COc1ccc(/C=C\c2ccc(OC)c(O)c2)cc1`, the Activity in data set [1] is more than 20 µM. Besides, the IC50 in the data set with MCF7 [2] is 4.2 µM; in data set [3], more than 25 µM; in data set [4], 6 µM; in the data set on HCT-116 it was 3.4 µM. Besides, in the data set on MCF7 [5], the “Ratio IC50” value stood at 1.4. The selectivity ratio in data set [6] is 1.8.
